Literature values as cited in patent US8188116B2, “Agents for therapy efficacy monitoring and deep tissue imaging” (Vanderbilt University, priority 2002, dated 2012).

Tested on: PBR
Settings: in words, background statement

- binding affinity for PBR: fentomolar
SMILES: COc1ccc(OC)c(CN(C(C)=O)c2cc(F)ccc2Oc2ccccc2)c1 [DAA1106]
